In patent US20030130297A1, “Oral administration of 6-hydroxy-oxymorphone for use as an analgesic” (Endo Pharmaceuticals, Inc., priority 2001, published 2003):

How the values were obtained:
[1] = Pharmacokinetic studies: blood plasma levels and pain relief over 12 hours after administration of oxymorphone; assay type: in vivo; conditions: for Time at which blood plasma levels peak: after administration of oxymorphone
Description: In two separate studies, blood plasma levels and indications of pain relief were recorded over a 12 hour period after.
After this time, oxymorphone levels again drop and eventually fall to levels near the earlier plateau.
After the initial peak, however, a more or less steady decline in the 6-hydroxy oxymorphones plasma levels is observed.
The amount administered will be dependent upon normal criteria such as patient weight, intensity of pain, and other factors. Based on the pharmacokinetic studies, blood plasma levels around at least 0.2 ng/mL will provide some analgesia. The upper plasma level limit will be ultimately established by safety concerns. […] Subsequent doses may be required to maintain these blood levels.

[2] = target: Opiate, Mu (Human Recombinant) (Homo sapiens, UniProt P35372); assay: Opiate Mu receptor binding assay
[3] = target: Opiate, Delta 2 (Human Recombinant) (Homo sapiens, UniProt P41143); assay: Opiate Delta 2 receptor binding assay
[4] = target: Opiate, Kappa (Human Recombinant (Homo sapiens, UniProt P41145)); assay: Opiate Kappa receptor binding assay
[5] = tested on: Opiate, Delta 1; assay: Opiate Delta 1 receptor binding assay

Opiate, Mu (Human Recombinant), sequence (P35372 whole entry): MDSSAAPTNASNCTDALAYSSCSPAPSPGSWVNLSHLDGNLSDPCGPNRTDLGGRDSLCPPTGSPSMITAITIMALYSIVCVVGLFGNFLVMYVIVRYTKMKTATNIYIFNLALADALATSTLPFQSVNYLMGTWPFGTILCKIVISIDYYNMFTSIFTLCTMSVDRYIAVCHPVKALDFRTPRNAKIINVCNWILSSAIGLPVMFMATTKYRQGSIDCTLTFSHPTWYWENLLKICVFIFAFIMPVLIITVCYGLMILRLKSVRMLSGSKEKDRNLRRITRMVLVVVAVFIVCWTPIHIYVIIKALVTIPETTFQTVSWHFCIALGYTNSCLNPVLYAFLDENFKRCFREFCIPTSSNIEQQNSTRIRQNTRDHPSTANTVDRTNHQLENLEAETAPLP
Opiate, Kappa (Human Recombinant, sequence (P41145 whole entry): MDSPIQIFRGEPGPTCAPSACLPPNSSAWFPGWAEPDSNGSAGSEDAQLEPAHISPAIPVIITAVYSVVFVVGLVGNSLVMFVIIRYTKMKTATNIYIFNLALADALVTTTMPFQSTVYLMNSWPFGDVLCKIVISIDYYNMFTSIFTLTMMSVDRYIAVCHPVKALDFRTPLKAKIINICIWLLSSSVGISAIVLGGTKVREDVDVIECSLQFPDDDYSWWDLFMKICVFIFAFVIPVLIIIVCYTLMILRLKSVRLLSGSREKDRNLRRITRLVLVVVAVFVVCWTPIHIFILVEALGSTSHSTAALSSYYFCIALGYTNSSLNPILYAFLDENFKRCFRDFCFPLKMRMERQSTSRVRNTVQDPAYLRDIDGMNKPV
Opiate, Delta 2 (Human Recombinant), sequence (P41143 whole entry): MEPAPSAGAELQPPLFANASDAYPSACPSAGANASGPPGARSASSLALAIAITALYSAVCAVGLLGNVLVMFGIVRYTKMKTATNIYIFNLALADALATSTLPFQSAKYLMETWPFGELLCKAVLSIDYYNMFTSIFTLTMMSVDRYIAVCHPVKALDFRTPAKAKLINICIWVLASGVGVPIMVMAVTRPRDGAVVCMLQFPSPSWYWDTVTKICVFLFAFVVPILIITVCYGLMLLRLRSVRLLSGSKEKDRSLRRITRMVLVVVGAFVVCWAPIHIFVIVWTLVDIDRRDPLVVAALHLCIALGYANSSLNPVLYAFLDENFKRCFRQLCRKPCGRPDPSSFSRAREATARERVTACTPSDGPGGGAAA

SMILES | Time at which blood plasma levels peak [1] [h] | Blood plasma level that provides some analgesia ([1]; based on the pharmacokinetic studies) | Assay report, binding, Opiate Mu ([2]; 10 nm (1.0 E−8)) [%] | Assay report, binding, Opiate Mu ([2]; 10 μm (1.0 E−5)) [%] | Assay report, binding, Opiate Delta 2 ([3]; 10 nm (1.0 E−8)) [%] | Assay report, binding, Opiate Delta 2 ([3]; 10 μm (1.0 E−5)) [%] | Assay report, binding, Opiate Kappa ([4]; 10 nm (1.0 E−8)) [%] | Assay report, binding, Opiate Kappa ([4]; 10 μm (1.0 E−5)) [%] | Assay report, binding, Opiate Delta 1 ([5]; 10 nm (1.0 E−8)) [%] | Assay report, binding, Opiate Delta 1 ([5]; 10 μm (1.0 E−5)) [%] | Time at which the blood plasma level spikes again ([1]; from administration of oxymorphone) [h]
CN1CC[C@]23c4c5ccc(O)c4O[C@H]2C(O)CC[C@@]3(O)[C@H]1C5 (some centres unmarked) [6-HYDROXY OXYMORPHONE, 6-hydroxy oxymorphone] | ≤ 2 | at least 0.2 ng/mL | 63.16 | 99.91 | 7.19 | 55.45 | 2.45 | 62.47 | −4.12 | 90.48 | –
CN1CC[C@]23c4c5ccc(O)c4O[C@H]2C(=O)CC[C@@]3(O)[C@H]1C5 [OXYMORPHONE, oxymorphone] | ≤ 2 | – | – | – | – | – | – | – | −18.26 | 89.03 | 4 to 6
